From patent publication US20160374979A1, “Method of Treatment of Alopecia with Monoterpenoids” (CELLMID LIMITED, priority 2013, published 2016) come the findings set out here.

In test [1] the test system is FGF-5-dependent cell proliferation (FR-BaF3 cells expressing FGFR-1c). The test is described as follows: FR-Ba/F3 cell proliferation/viability assay in the presence of FGF-5 (CCK-8). It counts as cell-based, murine. As to the method:
Ba/F3 is a murine interleukin-3 (IL-3)-dependent pro-B cell line. […] That is, compounds were tested for their ability to modulate proliferation of FR-Ba/F3 cells in the presence of recombinant human FGF-5 (rhFGF-5) prepared according to Maeda et al., Nishi Nihon Hifuka, 69(1): 81-86, 2007.
Briefly, a suitable plasmid expressing FGFR-1c was introduced into […] ER-Ba/F3 cells, and the cells were maintained in RPMI RPMI-1640 with 10% FBS and 1.3×10^−17 M of murine IL-3 (Sigma, St Louis, […].) containing antibiotic G418 sulfate (Promega, Medison, Wis.). The inventors compared proliferation of FR/BaF3 cells in culture medium containing IL3 or FGF-5 and a different concentration in the range from 0.005% (w/v) to 1.0% (w/v) of each test compound listed in Example 1. The FR-BaF3 cells were seeded at 5×10^4/mL cells per well in 96-well, micro-culture plates (Falcon) in RPMI-1640 culture medium containing 10% fetal bovine serum, 5 μg/mL heparin. Recombinant human FGF-5 (rhFGF-5; 1 μg/mL) was added to one group, and IL-3 (0.2 ng/mL) (Sigma) was added to another group. The test compounds were then introduced to the micro-culture plate wells. Total volume of media per well was 100 μl. Control groups lacking test compound were also prepared for each of the IL-3-supplemented and FGF-5-supplemented samples. The plates were then incubated at 37° C. in 5% CO2 for 3 days.
After 3 days, colorimetric assays were performed using a Cell Counting Kit-8 (CCK-8) (Wako) according to the manufacturer's instructions to measure cell proliferation or suppression thereof by the test compound at varying concentrations. Briefly, 10 μl (1:2 dilution) of the CCK-8 reagent was added to each micro-culture plate well after which time the plates were incubated at […] for 3 hours. Absorbance at 450 nm was then measured using a microplate reader. Cell viability and proliferation for the IL-3-supplemented and FGF-5-supplemented groups was calculated as a measure of the optical density (OD) of cells treated with a test compound relative to the OD of the respective untreated controls, excluding the OD of blank controls (media only). Dose response curves were plotted and the respective inhibitory concentrations (IC50) for the test compounds were determined.

For test [2], the system named is murine vibrissae follicles. The test can be described thus: Hair shaft elongation of murine vibrissae follicles cultured ex vivo. More on the design: species or system C3H mice. Conditions: piperitone 0.1 mg/mL in culture medium. The text has this:
Five week old male C3H mice (supplied by Japan SLC, lnc., Hamamatsu, Japan) were used for isolation of vibrissae follicles. The mice were sacrificed and the vibrissae follicles were carefully dissected from the mystacial pad. Briefly, the mystacial pad was cut into two sides (left and right). The skin cut, picked at the edge by tweezers, was washed in (i) 70% Ethanol for 30 seconds, (ii) PBS for 10 seconds, (iii) fresh PBS for 10 seconds, and (iv) another fresh PBS for 10 seconds. This washing process was repeated twice. After washing, the skin cut was placed inverted to expose the vibrissae follicles in Dulbecco's Modified Eagle's Medium (DMEM; Wako Pure Chemical, Osaka, Japan) at 37° C. Under a dissecting microscope, the surrounding tissue was removed from the follicles using tweezers, carefully so as not to destroy the structure of the follicles. The isolated follicles were then placed immediately into Williams' E medium (Life Technologies, Carlsbad, USA).
From the isolated mouse vibrissae follicles, only early anagen follicles were selected and randomized into groups with 30 follicles per group. […]
Follicles in each of the treatment and control groups were incubated at 37° C. at 5% CO2 for 8 days, while exchanging the respective culture mediums every 2 days. From Day 1, elongation of hair shafts was observed and the elongation length was measured for each hair shaft every 24 hours from Day 1 to Day 8 using a micrometer under microscope. […]
Follicles in each of the treatment and control groups were incubated at 37° C. at 5% CO2 for 5 days, while exchanging the culture medium every 3 days. From Day 1, elongation of hair shafts was observed and the elongation length was measured for each hair shaft every 24 hours from Day 1 to Day 5. using a micrometer under microscope. […]

Turning to `CC1=CC(=O)C(C(C)C)CC1` (stereo not shown) [Piperitone, 3-Methyl-6-(propan-2-yl)cyclohex-2-en-1-one], the “FGF-5-inhibitory activity (in words)” value in test [1] (judged from FR-BaF3 result) is on record as “potent FGF-5-inhibitory active substances”. Further, the “FGF-5 Specificity IL-1/FGF-5” value in test [1] (ratio of the IC50 with IL-3 to the IC50 with FGF-5, BR: less reproducible) was 25. Also, in test [2] (5 days (FIG. 22)), the “hair shaft elongation over time” value is “continued steadily and consistently throughout the culture period”. Besides, in test [2] (versus control), the hair growth result is “increased hair growth”.
